Results published in patent US4006237A, “Tetrahydrocarbostyril derivatives for the prophylaxis of asthma, hayfever and rhinitis” (Beecham Group Limited, priority 1973, dated 1977).

System: rat PCA response
Assay: Rat Passive Cutaneous Anaphylaxis (PCA) test
Format: in vivo, rat (male Wistar serum donors; Wistar test rats)
Method: Some of the substituted 4-hydroxy-3-nitro-α-pyridones prepared in the previous examples were submitted for biological testing. The test system was the Rat Passive Cutaneous Anaphylaxis (PCA) test described below in (ii).
i. Serum containing heat labile homocytotropic antibody was raised in rats by a method similar to that used by Mota. (I. Mota Immunology 1964, 7, 681).
Male Wistar rats of 250- 300g, were injected intraperitoneally with 0.5ml of Bordatella pertussis vaccine (containing 4 × 10^10 dead organism per ml) and subcutaneously with 0.5ml of an emulsion of 100mg of ovalbumin in 2ml of saline and 3ml of incomplete Freunds' adjuvant. Rats were bled by cardiac puncture on day 18, the blood was pooled and separated and serum stored at -20° C and thawed only once before use.
ii. The P.C.A. test was similar to that described by Ovary and Bier (A. Ovary and O. E. Bier, Proc. Soc. Exp. Biol.Med.1952, 81, 584) and Goose and Blair (J. Goose and A. M. J. N. Blair, Immunology 1969, 16, 769).
0.1ml. of each six twofold serial dilutions of the serum in 0.9% saline were injected intradermally into separate sites on the shaved dorsal surface of 250-350 g Wistar rats. 72 hours later the animals were challenged by i.v. injection of 0.3ml of 1% ovalbumin mixed with 0.1ml of a 5% solution of pontamine sky blue dye both in isotonic saline buffered with pH 7.2 Sorenson buffer (P.B.S.). The rats were killed after 20 minutes and the diameter of the blue wheals at the antibody injection sites were measured. The starting dilution of the serum was adjusted so that there was no response, after challenge, at the site of injection of the highest dilution and a maximum response at the lowest dilution. Typically, six twofold serial dilutions of the serum from 1/4 to 1/128 were used.
Compounds were tested for their ability to reduce the diameter of the wheals at the injection sites of dilutions of antibody which on all the controls have less than maximum response. Amounts of the compounds were administered to rats each amount to a test group of six animals at a specified time prior to intravenous challenge with ovalbumin. The diameters of the blue wheals which developed on the test group of animals were compared with those on a control group of six animals treated in the same way as the test group, but which had not received the compound under test.
% Inhibition of P.C.A. = 100 (1 - (a/b))
a = The mean of the sum of the diameters of the wheels produced in the test group of animals at those antibody sites where all the control group of animals gave less than maximum response.
b = The mean of the sum of diameters of the wheals produced in the control group of animals at those antibody sites where all the animals in the group gave less than the maximum response.
The compounds were administered either as a solution of the free nitro compound or as a solution or suspension in 1% methyl cellulose of the sodium salt.

[1] = time 60 mins prior to challenge
[2] = time 30 mins prior to challenge
[3] = time 10 mins prior to challenge

Row | SMILES | inhibition in vivo at 25 mg/kg (time 0 mins prior to challenge) | inhibition in vivo at 25 mg/kg [1] | inhibition in vivo at 100 mg/kg (time 0 mins prior to challenge) | inhibition in vivo at 100 mg/kg [1] | inhibition in vivo at 25 mg/kg [2] | inhibition in vivo at 100 mg/kg [2] | inhibition in vivo at 25 mg/kg [3] | inhibition in vivo at 100 mg/kg [3]
1 | CC1CCc2[nH]c(=O)c([N+](=O)[O-])c(O)c2C1 (centres unmarked) [Example 6, 4-Hydroxy-6-methyl-3-nitro-5,6,7,8-tetrahydrocarbostyril] | 1% | 15% | 24% | 37% | – | – | – | –
2 | CCn1c2c(c(O)c([N+](=O)[O-])c1=O)CCCC2 [Example 8, 1-Ethyl-4-hydroxy-3-nitro-5,6,7,8-tetrahydrocarbostyril] | -5% | – | 12% | – | 14% | 75% | – | –
3 | CCCn1c2c(c(O)c([N+](=O)[O-])c1=O)CCCC2 [Example 9, 4-Hydroxy-3-nitro-1-n-propyl-5,6,7,8-tetrahydrocarbostyril] | 51% | – | 18% | – | 25% | 69% | – | –
4 | CC(C)n1c2c(c(O)c([N+](=O)[O-])c1=O)CCCC2 [Example 10, 4-Hydroxy-1-isopropyl-3-nitro-5,6,7,8-tetrahydrocarbostyril] | 5% | – | 8% | – | 0% | 16% | – | –
5 | CC1Cc2[nH]c(=O)c([N+](=O)[O-])c(O)c2C(C)C1 (centres unmarked) [Example 5, 5,7-dimethyl-4-hydroxy-3-nitro-5,6,7,8-tetrahydrocarbostyril] | 27% | – | 72% | – | 14% | 42% | – | –
6 | CCn1c2c(c(O)c([N+](=O)[O-])c1=O)CCC(C)C2 (centres unmarked) [Example 11, 1-Ethyl-4-hydroxy-7-methyl-3-nitro-5,6,7,8-tetrahydrocarbostyril] | 8% | – | 31% | – | 38% | 57% | – | –
7 | CC1CCc2c([nH]c(=O)c([N+](=O)[O-])c2O)C1 (centres unmarked) [Example 2, 4-Hydroxy-7-methyl-3-nitro-5,6,7,8-tetrahydrocarbostyril] | 36% | – | 76% | – | 49% | 40% | – | –
8 | O=c1[nH]c2c(c(O)c1[N+](=O)[O-])CCCCC2 [Example 4, 5,6-cycloheptenyl-4-hydroxy-3-nitro-α-pyridone] | -10% | 1% | -3% | 27% | – | – | – | –
9 | O=c1[nH]c2c(c(O)c1[N+](=O)[O-])CCCC2 [Example 1, 4-Hydroxy-3-nitro-5,6,7,8-tetrahydrocarbostyril] | 16% | – | 70% | – | 15% | 20% | – | –
10 | O=c1[nH]c2c(c(O)c1[N+](=O)[O-])CCC2 [Example 3, 5,6-Cyclopenteno-4-hydroxy-3-nitro-α-pyridone] | 10% | – | 28% | – | -20% | 6% | – | –
11 | O=c1[nH]c2c(c(O)c1[N+](=O)[O-])CCCCCC2 [Example 7, 5,6-cyclooctenyl-4-hydroxy-3-nitro-α-pyridone] | – | – | – | – | 15% | 37% | 17% | 59%
